US20030055004A1, “GPE analogs and peptidominetics” (priority 2001, published 2003)

Test system: cortical cultures
Experiment: Neuroprotection in cortical cultures after toxin (okadaic acid), MTT survival assay
Format: cell-based, rat
Conditions: higher concentrations of GPE, FIG. 12, 24 hrs incubation, 8DIV
Protocol: One cortical hemisphere from a postnatal day 1 rat was used and collected into 4 ml of DMEM. Trituration was done with a 5 ml glass pipette and subsequently through an 18 gauge needle. Afterwards, the cell suspension was sieved through a 100 μm cell strainer and washed in 50 ml DMEM (centrifugation for 5 min at 250 g). […] After cells reached confluence, they were washed three times with PBS and adjusted to Neurobasal/B27 and incubated for another 3 days. This supernatant was frozen for transient storage until usage at −80° C. A dam was sacrificed by CO2-treatment in a chamber for up to 4 minutes and was prepared then for cesarean section. After surgery, the embryos were removed from their amniotic sacs, decapitated and the heads put on ice in DMEM/F12 medium for striatum and PBS+0.65% D(+)-glucose for cortex. The two cortical hemispheres were carefully removed by a spatula from the whole brain with the ventral side facing upside into a PBS +0.65% D(+)-glucose containing petri dish. […] Cells were counted and adjusted to 50,000 cells per 60 μl. […] The survival rate was determined by a colorimetric end-point MTT-assay at 595 nm in a multi-well plate reader. For the cerebellar microexplants four windows (field of 0.65 mm^2) with highest cell density were chosen and cells displaying neurite outgrowth were counted.

Which neuroprotection does the source give for `NCC(=O)N1CCC[C@H]1C(=O)N[C@@H](CCC(=O)O)C(=O)O` [GPE, glycyl-L-prolyl-L-glutamic acid] here?
Its neuroprotection is 64%.
